Measured values published in US20120132797A1, “MEANS AND METHODS FOR DIAGNOSING THYROID DISORDERS” (BASF SE, priority 2009, published 2012).
Several values for one entry are separate records, joined by “and”; a condition that tells them apart may be missing. Equal entries are not always repeated.

System: Wistar (Crl:WI(Han)) rats
Experiment: Mass spectrometry-based plasma metabolite profiling of rats treated with known inducers of thyroid function impairment
Assay type: in vivo, rat
Details: ratio of group medians vs controls
Excerpt: At the beginning of the study the animals were 10-11 weeks old. Each dose group in the studies consisted of five rats per sex, and was compared with controls (10 rats per sex). […] The dose levels were chosen to show the typical overt (high dose) and slight (low dose) toxicological symptoms of the substances as described in the literature or in BASF internal study reports.
Blood samples were withdrawn from the retro-orbital sinus in all rats under isoflurane anesthesia on study days 7, 14 and 28 after a fasting period of 16-20 hours.
For mass spectrometry-based metabolite profiling analysis, plasma samples were extracted by a proprietary method which delivers a polar and a non-polar fraction. For GC-MS analysis, the non-polar fraction was treated with methanol under acidic conditions to yield the fatty acid methyl esters. Both fractions were further derivatised with Omethyl-hydroxyamine hydrochloride and pyridine to convert oxo groups to Omethyloximes and subsequently with a silylating agent before analysis.
In LC-MS/MS analysis, both fractions were reconstituted in appropriate solvent mixtures. HPLC was performed by gradient elution on reversed phase separation columns. For mass spectrometric detection metanomics proprietary technology was applied, which allows target and high sensitivity MRM (Multiple Reaction Monitoring) profiling in parallel to a full screen analysis. […] Moreover, several hundred additional analytes giving a fingerprint of the sample were included in the methods.
Following comprehensive analytical validation steps, the data for each analyte were normalized against data from pool samples. These samples were run in parallel through the whole process to account for process variability.
The sex- and day-stratified heteroscedastic t-test (“Welch test”) was applied to compare treated groups with respective controls. p-Values and ratios of corresponding group medians were collected as metabolic profiles and fed into a database.

[1] = female rats, fh7 (study day 7), Table 1
[2] = female rats, fh14 (study day 14), Table 1
[3] = female rats, fh28 (study day 28), Table 1
[4] = male rats, mh7 (study day 7), Table 2
[5] = male rats, mh14 (study day 14), Table 2
[6] = male rats, mh28 (study day 28), Table 2
[7] = male rats, mh7 (study day 7), Table 4
[8] = male rats, mh14 (study day 14), Table 4
[9] = male rats, mh28 (study day 28), Table 4

With `S=C1NCCN1` [Ethylenethiourea] the 5-O-Methylsphingosine [1] was 1.29 and 1.20, the Asparagine [1] was 1.06 and 1.35 and the “Behenic acid (C22:0)” value [1] was 1.48 and 1.27. The Citrate [1] was 0.89 and 0.78, the “Docosahexaenoic acid (C22:cis[4,7,10,13,16]6)” value (from here on “Docosahexaenoic acid”) [1] was 1.12 and 1.29 and the Glycine [1] was 1.21 and 1.09. For the same molecule, the Ketoleucine [1] was 0.93 and 0.84, the “Lysophosphatidylcholine (C18:2)” value [1] was 1.08 and the “Phosphatidylcholine (C16:1, C18:2)” value [1] was 1.43 and 1.26. For the same molecule, the “Phosphatidylcholine (C18:2, C20:4)” value [1] was 1.09 and 1.02, the Pyruvate [1] was 1.29 and 0.74 and the “Tricosanoic acid (C23:0)” value [1] was 1.38 and 1.44. The erythro-Sphingosine [1] was 1.46 and 1.39, the threo-Sphingosine [1] was 1.35 and 1.58 and the “Sphingomyelin (d18:1, C16:0)” value (female rats, fh7 (study day 7), Table 1, first listing) was 1.71 and 1.62. For the same molecule, the “Sphingomyelin (d18:1, C16:0)” value (female rats, fh7 (study day 7), Table 1, second listing) was 1.29 and 1.46, the 5-O-Methylsphingosine [2] was 1.56 and 1.59 and the Asparagine [2] was 1.31 and 1.27. The “Behenic acid (C22:0)” value [2] was 1.29 and 1.69, the Citrate [2] was 0.85 and 0.86 and the “Docosahexaenoic acid” value [2] was 1.45 and 1.24. The Glycine [2] was 1.24 and 1.18, the Ketoleucine [2] was 0.84 and 0.82 and the “Lysophosphatidylcholine (C18:2)” value [2] was 1.19 and 1.17. The “Phosphatidylcholine (C16:1, C18:2)” value [2] was 1.43 and 1.54, the “Phosphatidylcholine (C18:2, C20:4)” value [2] was 1.15 and 1.09 and the Pyruvate [2] was 0.79 and 1.14. The “Tricosanoic acid (C23:0)” value [2] was 1.52 and 1.30, the erythro-Sphingosine [2] was 1.71 and 1.98 and the threo-Sphingosine [2] was 1.47 and 1.61. For the same molecule, the “Sphingomyelin (d18:1, C16:0)” value (female rats, fh14 (study day 14), Table 1, first listing) was 1.43 and 1.55, the “Sphingomyelin (d18:1, C16:0)” value (female rats, fh14 (study day 14), Table 1, second listing) was 1.06 and 1.34 and the 5-O-Methylsphingosine [3] was 1.63 and 1.59. For the same molecule, the Asparagine [3] was 1.26 and 0.84, the “Behenic acid (C22:0)” value [3] was 1.69 and 1.27 and the Citrate [3] was 0.70 and 0.91. The “Docosahexaenoic acid” value [3] was 1.22 and 1.11, the Glycine [3] was 1.32 and 1.01 and the Ketoleucine [3] was 0.88 and 0.74. For the same molecule, the “Lysophosphatidylcholine (C18:2)” value [3] was 1.10 and 1.23, the “Phosphatidylcholine (C16:1, C18:2)” value [3] was 1.41 and 1.30 and the “Phosphatidylcholine (C18:2, C20:4)” value [3] was 1.06 and 1.04. For the same molecule, the Pyruvate [3] was 0.69 and 1.04, the “Tricosanoic acid (C23:0)” value [3] was 1.42 and 1.05 and the erythro-Sphingosine [3] was 1.51 and 1.35. For the same molecule, the threo-Sphingosine [3] was 1.51 and 1.26, the “Sphingomyelin (d18:1, C16:0)” value (female rats, fh28 (study day 28), Table 1, first listing) was 1.70 and 1.38 and the “Sphingomyelin (d18:1, C16:0)” value (female rats, fh28 (study day 28), Table 1, second listing) was 1.16 and 1.07. For the same molecule, the 3-O-Methylsphingosine [4] was 2.26, the 5-O-Methylsphingosine [4] was 2.36 and the 14-Methyl-Pentadecanoic acid [4] was 0.98. The 17-Methyloctadecanoic acid [4] was 0.97, the Arginine [4] was 1.24 and the Cholesterol [4] was 1.74. The Citrate [4] was 0.86, the “Dihom-gamma-Linolenic acid (C20:cis[8,11,14]3)” value (shortened to “Dihom-gamma-Linolenic acid”) [4] was 2.34 and the “Lignoceric acid (C24:0)” value [4] was 1.94. The Phytosphingosine [4] was 1.53, the “Sphingomyelin (d18:1, C16:0)” value [4] was 1.65 and the “Tricosanoic acid (C23:0)” value [4] was 1.67. For the same molecule, the alpha-Tocopherol [4] was 2.58, the erythro-Sphingosine [4] was 2.06 and the threo-Sphingosine [4] was 2.05. The Glutamate (male rats, mh7 (study day 7), Table 2, first listing) was 1.07, the Glutamate (male rats, mh7 (study day 7), Table 2, second listing) was 1.15 and the 3-O-Methylsphingosine [5] was 2.34. For the same molecule, the 5-O-Methylsphingosine [5] was 2.37, the 14-Methyl-Pentadecanoic acid [5] was 0.96 and the 17-Methyloctadecanoic acid [5] was 0.83. The Arginine [5] was 1.30, the Cholesterol [5] was 2.25 and the Citrate [5] was 0.81. For the same molecule, the “Dihom-gamma-Linolenic acid” value [5] was 1.84, the “Lignoceric acid (C24:0)” value [5] was 1.66 and the Phytosphingosine [5] was 1.67. For the same molecule, the “Sphingomyelin (d18:1, C16:0)” value [5] was 1.69, the “Tricosanoic acid (C23:0)” value [5] was 2.01 and the alpha-Tocopherol [5] was 2.99. The erythro-Sphingosine [5] was 2.06, the threo-Sphingosine [5] was 2.03 and the Glutamate (male rats, mh14 (study day 14), Table 2, first listing) was 0.73. The Glutamate (male rats, mh14 (study day 14), Table 2, second listing) was 0.82, the 3-O-Methylsphingosine [6] was 2.91 and the 5-O-Methylsphingosine [6] was 2.78. It also gave a 14-Methyl-Pentadecanoic acid [6] of 0.77, a 17-Methyloctadecanoic acid [6] of 0.89 and an Arginine [6] of 1.20. For the same molecule, the Cholesterol [6] was 1.98, the Citrate [6] was 0.64 and the “Dihom-gamma-Linolenic acid” value [6] was 2.68. The “Lignoceric acid (C24:0)” value [6] was 2.07, the Phytosphingosine [6] was 2.17 and the “Sphingomyelin (d18:1, C16:0)” value [6] was 1.79. For the same molecule, the “Tricosanoic acid (C23:0)” value [6] was 2.39, the alpha-Tocopherol [6] was 3.13 and the erythro-Sphingosine [6] was 2.29. The threo-Sphingosine [6] was 2.05, the Glutamate (male rats, mh28 (study day 28), Table 2, first listing) was 0.70 and the Glutamate (male rats, mh28 (study day 28), Table 2, second listing) was 0.77.
For `Cc1cccc(C)c1N(Cn1cccn1)C(=O)CCl` [Metazachlor], the “Behenic acid (C22:0)” value [7] was 1.92, the Cholesterol [7] was 1.71 and the Citrate [7] was 0.99. For the same molecule, the Cytosine [7] was 0.64, the “Galactose, lipid fraction” value [7] was 1.81 and the Glycerol phosphate [7] was 1.63. For the same molecule, the Glycine [7] was 1.12, the “Lignoceric acid (C24:0)” value [7] was 1.60 and the Mannose [7] was 1.22. For the same molecule, the “Nervonic acid C24:(cis[15]1)” value [7] was 3.17, the “Phospha-tidylcholine (C18:0, 18:2)” value [7] was 1.40 and the “Sphingomyelin (d18:1, C16:0)” value [7] was 2.54. For the same molecule, the “Stearic acid (C18:0)” value [7] was 1.45, the Threonic acid [7] was 1.16 and the “dihomo-gamma-Linolenic acis (C20:cis[8,11,14]3)” value (“dihomo-gamma-Linolenic acis” below) [7] was 2.41. The erythro-Sphingosine [7] was 2.31, the myo-Inositol-2-phosphate [7] was 2.17 and the threo-Sphingosine [7] was 2.05. The “Behenic acid (C22:0)” value [8] was 2.47, the Cholesterol [8] was 2.15 and the Citrate [8] was 0.94. For the same molecule, the Cytosine [8] was 0.75, the “Galactose, lipid fraction” value [8] was 2.27 and the Glycerol phosphate [8] was 2.20. The Glycine [8] was 1.10, the “Lignoceric acid (C24:0)” value [8] was 2.38 and the Mannose [8] was 1.37. The “Nervonic acid C24:(cis[15]1)” value [8] was 4.00, the “Phospha-tidylcholine (C18:0, 18:2)” value [8] was 1.55 and the “Sphingomyelin (d18:1, C16:0)” value [8] was 2.36. The “Stearic acid (C18:0)” value [8] was 2.36, the Threonic acid [8] was 1.25 and the “dihomo-gamma-Linolenic acis” value [8] was 5.18. The erythro-Sphingosine [8] was 3.47, the myo-Inositol-2-phosphate [8] was 4.01 and the threo-Sphingosine [8] was 3.22. The “Behenic acid (C22:0)” value [9] was 2.05, the Cholesterol [9] was 2.43 and the Citrate [9] was 1.08. For the same molecule, the Cytosine [9] was 0.66, the “Galactose, lipid fraction” value [9] was 2.57 and the Glycerol phosphate [9] was 2.36. For the same molecule, the Glycine [9] was 1.26, the “Lignoceric acid (C24:0)” value [9] was 2.11 and the Mannose [9] was 1.46. The “Nervonic acid C24:(cis[15]1)” value [9] was 3.63, the “Phospha-tidylcholine (C18:0, 18:2)” value [9] was 1.51 and the “Sphingomyelin (d18:1, C16:0)” value [9] was 2.32. For the same molecule, the “Stearic acid (C18:0)” value [9] was 2.59, the Threonic acid [9] was 1.36 and the “dihomo-gamma-Linolenic acis” value [9] was 3.36. For the same molecule, the erythro-Sphingosine [9] was 3.68, the myo-Inositol-2-phosphate [9] was 2.79 and the threo-Sphingosine [9] was 3.54.
